Data from the supplement of paper PMC10307832.

Key:
[1] = compound: C1CCC(CC1)N(CCNCCC2=C3C(=C(C=C2)O)NC(=O)CO3)C(=O)CCNCCC4=CC(=C(C=C4)Cl)Cl [AZ505]; assay: relative viability (nuclei count vs DMSO), 5 days (fraction); higher = more cells survive
Method in brief: (§1)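 Following overnight incubation at 37 °C, lung cancer cell lines in 1536-well plates were pinned with five library-drug doses (not always all listed) in √10 steps on vehicle-anchored plates. The cells then spent 5 days without medium change before a combined fix, permeabilisation and Hoechst stain, 4× imaging and MetaXpress nuclear counts. Viability is the treated-to-vehicle ratio of nuclei, taken as the median across plates. Only plates with control CV below 25% and at least one doubling passed.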

[2] = compound: Cn1c(=O)n(-c2ccc(C(C)(C)C#N)cc2)c2c3cc(-c4cnc5ccccc5c4)ccc3ncc21 [Dactolisib]; assay: as above
Method in brief: as §1

| Cell Line | relative viability ([1]; 0.08 µM) | relative viability ([1]; 0.253 µM) | relative viability ([1]; 0.8 µM) | relative viability ([1]; 2.53 µM) | relative viability ([1]; 8 µM) | relative viability ([2]; 0.002 µM) | relative viability ([2]; 0.006325 µM) | relative viability ([2]; 0.02 µM) | relative viability ([2]; 0.06325 µM) | relative viability ([2]; 0.2 µM) |
| --- | --- | --- | --- | --- | --- | --- | --- | --- | --- | --- |
| NCI-H2228 | 0.897 | 0.859 | 0.821 | 1.07 | 0.885 | 1.13 | 0.812 | 0.612 | 0.38 | 0.197 |
| NCI-H2342 | 1.03 | 1.08 | 1.17 | 1.07 | 1.08 | 0.997 | 0.999 | 0.862 | 0.843 | 0.591 |
| NCI-H2347 | 0.643 | 0.759 | 0.738 | 0.589 | 0.833 | 1.27 | 0.971 | 0.958 | 0.771 | 0.517 |
| NCI-H2405 | 0.769 | 0.707 | 0.784 | 0.892 | 0.82 | 1.01 | 0.993 | 0.97 | 0.607 | 0.447 |
| NCI-H3122 | 0.972 | 1.01 | 0.975 | 0.931 | 1.02 | 0.993 | 1.01 | 0.981 | 0.99 | 0.751 |
| PC-3 [JPC-3] | 0.956 | 0.978 | 0.974 | 0.926 | 1.07 | 1.11 | 1.03 | 1.03 | 0.898 | 0.664 |
| PC-14 | 0.915 | 0.96 | 0.947 | 0.955 | 1.04 | 1.05 | 1.01 | 0.836 | 0.33 | 0.182 |
| RERF-LC-KJ | 0.947 | 0.968 | 0.925 | 0.953 | 0.943 | 1 | 0.961 | 0.889 | 0.497 | 0.509 |
| SK-LU-1 | 0.634 | 0.683 | 0.65 | 0.679 | 0.797 | 0.879 | 0.995 | 0.88 | 0.502 | 0.359 |
| SK-MES-1 | 0.92 | 0.953 | 0.909 | 0.943 | 0.935 | 1.1 | 0.983 | 0.914 | 0.542 | 0.339 |
| SW 900 | 0.857 | 0.856 | 0.818 | 0.963 | 0.97 | 0.913 | 0.769 | 0.714 | 0.329 | 0.346 |
| SW 1573 | 0.9 | 0.964 | 0.899 | 0.914 | 0.958 | 1.07 | 0.838 | 0.696 | 0.414 | 0.284 |
